According to patent publication US20030065039A1, “Biologically active 1,3-bis-aromatic-prop-2-en-1-ones, 1,3-bis-aromatic-propan-1-ones, and 1,3-bis-aromatic-prop-2-yn-1-ones” (Statens Serum Institute, priority 1997, published 2003):

Columns and labels:
Vero cell cultures = test: Cytotoxicity in Vero cell cultures; type: cell-based; conditions: Vero cells; values given as fractions, footnote a not given
Text: (§1) In the following is reported the results from a Vero cell culture infected with different viruses. The cell culture used as well as the methods applied are well known to a person skilled in the art.

Coxsackie virus B4 = test: Antiviral activity in Vero cell cultures; type: cell-based; conditions: Vero cells; values given as fractions
Procedure: (§2) IC50 values are determined by the virus plaque formation and/or the virus cytopathic assay using standard methods well-known in the art.
as §1

Parainfluenza-3 Virus = test: Antiviral activity in Vero cell cultures; type: cell-based; conditions: Vero cells; values given as fractions
Procedure: as §2, §1

Reovirus-1 = test: Antiviral activity in Vero cell cultures; type: cell-based; conditions: Vero cells; values given as fractions
Procedure: as §2, §1

Simliki forest virus = test: Antiviral activity in Vero cell cultures; type: cell-based; conditions: Vero cells; values given as fractions
Procedure: as §2, §1

Sindbis virus = test: Antiviral activity in Vero cell cultures; type: cell-based; conditions: Vero cells; values given as fractions
Procedure: as §2, §1

[1] = tested on: cytomegalovirus AD-169 strain; test: Activity against cytomegalovirus in HEL cells (plaque formation); type: cell-based; conditions: virus plaque formation reduced by 50%, 100 PFU, values given as fractions
Procedure: as §2

[2] = tested on: cytomegalovirus Davis strain; test: as above; type: cell-based; conditions: virus plaque formation reduced by 50%, 100 PFU, values given as fractions
Procedure: as §2

[3] = tested on: human embryonic lung (HEL) cells; test: Cytotoxicity in human embryonic lung (HEL) cells; type: cell-based; conditions: HEL cell growth reduced by 50%; values given as fractions
[4] = molecular target: T1, Helicobacter pylori fumarate reductase (Helicobacter pylori, UniProt O06913); type: biochemical; conditions: at concentration of 0.2 mM
T1 construct: Membrane associated proteins were solubilized from the pellet in 150 mM KCl, pH 7.0; endogenous in cells; host or cells: Helicobacter pylori 007 strain; KCl-solubilised fraction (or sonicate supernatant)
T1 sequence (O06913 1-714): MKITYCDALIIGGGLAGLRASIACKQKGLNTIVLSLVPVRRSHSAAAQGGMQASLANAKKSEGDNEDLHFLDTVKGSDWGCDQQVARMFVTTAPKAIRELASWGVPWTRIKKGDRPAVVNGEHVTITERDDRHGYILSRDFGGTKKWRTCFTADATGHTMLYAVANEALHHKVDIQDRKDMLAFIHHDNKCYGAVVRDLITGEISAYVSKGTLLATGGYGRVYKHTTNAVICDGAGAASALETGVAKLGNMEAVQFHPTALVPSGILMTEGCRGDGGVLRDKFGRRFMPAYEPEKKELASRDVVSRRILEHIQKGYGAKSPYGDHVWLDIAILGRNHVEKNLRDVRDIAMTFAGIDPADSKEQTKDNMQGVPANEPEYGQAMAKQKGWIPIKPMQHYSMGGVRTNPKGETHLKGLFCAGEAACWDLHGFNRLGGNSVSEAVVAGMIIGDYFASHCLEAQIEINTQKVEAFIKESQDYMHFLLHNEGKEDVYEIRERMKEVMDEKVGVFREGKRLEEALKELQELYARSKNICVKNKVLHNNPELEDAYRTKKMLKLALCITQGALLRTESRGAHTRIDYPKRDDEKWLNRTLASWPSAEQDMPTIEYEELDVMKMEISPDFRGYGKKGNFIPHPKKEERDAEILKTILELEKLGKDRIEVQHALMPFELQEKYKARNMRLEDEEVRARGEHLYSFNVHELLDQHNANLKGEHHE
T1 sequence (O06914 1-245 partner): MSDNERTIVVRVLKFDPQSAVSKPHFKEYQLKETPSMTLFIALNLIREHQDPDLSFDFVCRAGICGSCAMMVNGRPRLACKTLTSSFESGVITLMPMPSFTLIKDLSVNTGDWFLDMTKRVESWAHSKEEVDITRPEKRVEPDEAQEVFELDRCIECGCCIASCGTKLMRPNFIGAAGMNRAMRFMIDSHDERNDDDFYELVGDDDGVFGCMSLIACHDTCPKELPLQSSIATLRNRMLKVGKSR
T1 sequence (O06912 1-255 partner): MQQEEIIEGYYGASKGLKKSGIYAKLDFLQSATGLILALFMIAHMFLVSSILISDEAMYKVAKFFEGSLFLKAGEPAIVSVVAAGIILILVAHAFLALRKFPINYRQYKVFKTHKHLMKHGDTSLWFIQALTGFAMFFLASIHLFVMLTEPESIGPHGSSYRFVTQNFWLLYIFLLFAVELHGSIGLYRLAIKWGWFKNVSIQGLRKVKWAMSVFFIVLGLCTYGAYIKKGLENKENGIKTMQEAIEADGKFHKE
Procedure: 1) Extraction of soluble FRD: Bacteria were harvested by centrifugation at 18,000 g for 10 min at 4° C., and were washed 2 times in an isotonic phosphate saline buffer (50 mM sodium phosphate, pH 7.2, 90 mM NaCl, 5 mM Kcl). Bacteria were lysed in 5 mM Tris-HCl, pH 7.4, for 15 minutes, and centrifuged 18,000 g for 10 minutes. Membrane associated proteins were solubilized from the pellet in 150 mM KCl, pH 7.0, in ice bath for 60 min, and then the supernatant was collected after centrifugation (18,000 g for 10 minutes) for the measurement of FRD activity.
2) Extraction of FRD by sonication: Bacteria were harvested by centrifugation at 18,000 g for 10 min at 4° C., were sonicated, and then the supernatant was collected after centrifugation (18,000 g for 10 minutes) for the measurement of FRD activity.
NADH-FRD activity was determined as the rate of NADH-oxidation upon addition of 1 mM fumarate in the KCl-solubilized fraction or sonicated fraction. The reaction was monitored spectrophotometrically at 340 nm (∈=6.2 mM^−1 cm^−1) using 100 μM NADH and usually 3 mg protein in both reference and sample cuvettes. The measurement was carried out in a Shimadzu UV-190 double-beam spectrophotometer. Protein concentrations were determined using a Bio-Rad protein assay (Bio-Rad Laboratories, 200 Alfred Nobel Dr. Hercules, Calif. 94547, USA).
KCl solubilised fraction of bacteria was incubated with different concentrations of various oxygenated chalcones at 28° C. and the remaining FRD activity was measured. The IC50 values were determined as the concentration at which 50% of the activity was inhibited.

Row | Compound | Minimum Cytotoxic Concentration (Vero cell cultures) | Minimum inhibitory concentration, Coxsackie virus B4 (Coxsackie virus B4) | Minimum inhibitory concentration, Parainfluenza-3 Virus (Parainfluenza-3 Virus) | Minimum inhibitory concentration, Reovirus-1 (Reovirus-1) | Minimum inhibitory concentration, Simliki forest virus (Simliki forest virus) | Minimum inhibitory concentration, Sindbis virus (Sindbis virus) | Antiviral activity IC50, AD-169 strain, Assay 1 [1] | Antiviral activity IC50, Davis strain, Assay 1 [2] | Cytotoxicity CC50 [3] | activity of NADH-fumarate reductase [4]
1 | COc1cccc(OC)c1/C=C/C(=O)c1ccc(O)cc1 [2,6m4′hc] | <1/100 | 1/600 | 1/600 | <1/100 | 1/600 | 1/2000 | 1/150 | 1/300 | 1/80 | –
2 | C=CCOc1ccc(C(=O)/C=C/c2c(OC)cc(OC)cc2OC)cc1 [2,4,6m4′ac] | <1/100 | 1/600 | 1/2000 | <1/100 | 1/600 | 1/2000 | 1/200 | 1/120 | <1/30 | –
3 | COc1ccc(/C=C/C(=O)c2ccccc2O)c(OC)c1 [2,4m2′hc] | <1/100 | <1/100 | <1/100 | <1/100 | <1/100 | <1/100 | <1/60 | <1/60 | <1/60 | –
4 | COc1ccc(/C=C/C(=O)c2ccc(O)cc2)cc1OC [3,4m4′hc] | <1/100 | <1/100 | <1/100 | <1/100 | <1/100 | <1/100 | 1/45 | 1/55 | <1/30 | –
5 | COc1ccc(/C=C/C(=O)c2ccccc2)c(OC)c1 [2,4mc] | <1/100 | <1/100 | <1/100 | <1/100 | <1/100 | <1/100 | <1/30 | 1/35 | <1/30 | –
6 | C=CCOc1ccc(C(=O)/C=C/c2cc(OC)ccc2OC)cc1 [2,5m4′ac] | <1/100 | <1/100 | <1/100 | <1/100 | <1/100 | <1/100 | 1/35 | 1/55 | <1/30 | –
7 | O=C(CC(=O)C(F)(F)F)c1cccs1 [2-thenoyltrifluoroacetone, reference compound] | – | – | – | – | – | – | – | – | – | almost completely inhibited
8 | C=CCOc1ccc(C(=O)/C=C/c2cc(OC)c(OC)cc2OC)cc1 [2,4,5m4′ac] | <1/100 | 1/600 | 1/2000 | <1/100 | 1/600 | 1/2000 | 1/60 | <1/30 | <1/30 | –
9 | C=CCOc1ccc(C(=O)/C=C/c2cccc(OC)c2OC)cc1 [2,3m4′ac] | <1/100 | <1/100 | <1/100 | <1/100 | <1/100 | <1/100 | <1/30 | <1/30 | <1/30 | –
